The test addresses T1, human A2a receptor (Homo sapiens, UniProt P29274).
T1 construct: purchased Perkin-Elmer RBHA2AM400UA; host or cells: HEK293 cells (membranes)
Kind of test: A2a competition binding assay, Scintillation Proximity technology. To be noted: membranes from HEK293 cells expressing human A2a receptor; Ki by Cheng-Prusoff equation. The method in brief: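 SPA competition: 0.5 nM tritiated pyrazolotriazolopyrimidine ligand displaced by compound at 3000 to 0.15 nM, 1 h room temperature, human A2a HEK293 membranes pretreated with adenosine deaminase, PBS/10 mM MgCl2 buffer. CGS15943 1 μM defined non-specific binding; EC50 converted to Ki via Cheng-Prusoff.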
For orientation: SPA uses beads or plates that emit light when radiolabelled molecules are held near them.

T1 sequence (P29274 whole entry): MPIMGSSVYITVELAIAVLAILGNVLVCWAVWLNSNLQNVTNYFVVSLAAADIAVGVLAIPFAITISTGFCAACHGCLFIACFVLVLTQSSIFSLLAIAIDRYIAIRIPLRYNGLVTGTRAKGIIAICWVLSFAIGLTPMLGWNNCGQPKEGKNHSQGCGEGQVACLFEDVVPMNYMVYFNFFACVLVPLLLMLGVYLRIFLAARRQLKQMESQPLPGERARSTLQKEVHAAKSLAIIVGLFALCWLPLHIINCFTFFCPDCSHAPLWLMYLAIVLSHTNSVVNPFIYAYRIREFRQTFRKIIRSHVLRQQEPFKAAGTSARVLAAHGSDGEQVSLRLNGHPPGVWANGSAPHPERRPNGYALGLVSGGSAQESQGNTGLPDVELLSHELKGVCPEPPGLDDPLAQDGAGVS

The Ki is the equilibrium dissociation constant of an inhibitor or competing ligand from its target. The low end stands for a stronger hold on the target, the high end for a looser hold on the target. In turn, `Cc1nc(C(=O)NC2CCN(c3ncccn3)CC2)c(N)nc1-c1ncco1` [Ex-66, 3-amino-6-methyl-5-(1,3-oxaol-2-yl)-N-(1-pyrimidin-2-ylpiperidin-4-yl)pyrazine-2-carboxamide] displayed an inhibition constant (Ki) of 24.4 nM.

Consider `Cc1cnccc1CNC(=O)c1nc(C)c(-c2ncco2)nc1N` [Ex-67, 3-amino-6-methyl-N-[(3-methylpyridin-4-yl)methyl]-5-(1,3-oxazol-2-yl)pyrazine-2-carboxamide], for which affinity was put at a Ki of 64.1 nM.

Take `Cc1nc(C(=O)NCC(=O)N2CCC2)c(N)nc1-c1ncco1` [Ex-68, 3-amino-N-(2-azetidin-1-yl-2-oxoethyl)-6-methyl-5-(1,3-oxazol-2-yl)pyrazine-2-carboxamide]: the Ki was 27.3 nM.

In the case of `Cc1nc(C(=O)NCc2cncnc2)c(N)nc1-c1ncco1` [Ex-69, 3-amino-6-methyl-5-(1,3-oxazol-2-yl)-N-(pyrimidin-5-ylmethyl)pyrazine-2-carboxamide], the inhibition constant Ki stood at 56.5 nM.

As for `Cc1ccc(CNC(=O)c2nc(C)c(-c3ncco3)nc2N)c(C)n1` [Ex-70, 3-amino-N-[(2,6-dimethylpyridin-3-yl)methyl]-6-methyl-5-(1,3-oxazol-2-yl)pyrazine-2-carboxamide], the inhibition constant (Ki) was determined as 41 nM.

Turning to `Cc1nc(C)c(CNC(=O)c2nc(C)c(-c3ncco3)nc2N)s1` [Ex-71, 3-amino-N-[(2,4-dimethyl-1,3-thiazol-5-yl)methyl]-6-methyl-5-(1,3-oxazol-2-yl)pyrazine-2-carboxamide], the affinity, expressed as Ki, was 23.8 nM.

`Cc1nc(C(=O)NCc2ncccc2Cl)c(N)nc1-c1ncco1` [Ex-72, 3-amino-N-[(3-chloropyridin-2-yl)methyl]-6-methyl-5-(1,3-oxazol-2-yl)pyrazine-2-carboxamide]: affinity was put at a Ki of 0.287 nM.

As for `Cc1cnc(F)c(CNC(=O)c2nc(C)c(-c3ncco3)nc2N)c1` [Ex-73, 3-amino-N-[(2-fluoro-5-methylpyridin-3-yl)methyl]-6-methyl-5-(1,3-oxazol-2-yl)pyrazine-2-carboxamide], the inhibition constant Ki turned out to be 4.64 nM.

As to `Cc1nc(C(=O)NCc2ncc(Cl)cc2F)c(N)nc1-c1ncco1` [Ex-74, 3-amino-N-[(5-chloro-3-fluoropyridin-2-yl)methyl]-6-methyl-5-(1,3-oxazol-2-yl)pyrazine-2-carboxamide], the inhibitory constant (Ki) worked out at 2.27 nM.

Regarding `Cc1nc(C(=O)NCc2cc(C(F)F)nc(C(F)F)c2)c(N)nc1-c1ncco1` [Ex-75, 3-amino-N-{[2,6-bis(difluoromethyl)pyridin-4-yl]methyl}-6-methyl-5-(1,3-oxazol-2-yl)pyrazine-2-carboxamide], the Ki turned out to be 40.4 nM.

As for `Cc1nc(C(=O)NCc2ccncn2)c(N)nc1-c1ncco1` [Ex-76, 3-amino-6-methyl-5-(1,3-oxazol-2-yl)-N-(pyrimidin-4-ylmethyl)pyrazine-2-carboxamide], the Ki came to 50.1 nM.

As for `Cc1cn(C)nc1CNC(=O)c1nc(C)c(-c2ncco2)nc1N` [Ex-77, 3-amino-N-[(1,4-dimethyl-1H-pyrazol-3-yl)methyl]-6-methyl-5-(1,3-oxazol-2-yl)pyrazine-2-carboxamide], affinity was put at a Ki of 0.828 nM.

Take `Cc1nc(C(=O)NCc2cnn(C)c2C)c(N)nc1-c1ncco1` [Ex-78, 3-amino-N-[(1,5-dimethyl-1H-pyrazol-4-yl)methyl]-6-methyl-5-(1,3-oxazol-2-yl)pyrazine-2-carboxamide]: the affinity, expressed as Ki, was 5.72 nM. This Ki is about 6.9-fold higher than that of the compound before.

Take `CCn1ccnc1CNC(=O)c1nc(C)c(-c2ncco2)nc1N` [Ex-79, 3-amino-N-[(1-ethyl-1H-imidazol-2-yl)methyl]-6-methyl-5-(1,3-oxazol-2-yl)pyrazine-2-carboxamide]: affinity was put at a Ki of 0.34 nM.

The compound `COc1ccc(C)c(CNC(=O)c2nc(C)c(-c3ncco3)nc2N)n1` [Ex-80, 3-amino-N-[(6-methoxy-3-methylpyridin-2-yl)methyl]-6-methyl-5-(1,3-oxazol-2-yl)pyrazine-2-carboxamide] gave an inhibitory constant (Ki) of 1.59 nM.

For `Cc1cc(C)nc(CNC(=O)c2nc(C)c(-c3ncco3)nc2N)n1` [Ex-81, 3-amino-N-[(4,6-dimethylpyrimidin-2-yl)methyl]-6-methyl-5-(1,3-oxazol-2-yl)pyrazine-2-carboxamide], the affinity, expressed as Ki, was 2.8 nM. Against the preceding compound, the Ki is about 1.8-fold higher.

As for `Cc1nc(C(=O)NC2CCC(F)(F)CC2)c(N)nc1-c1ncco1` [Ex-83, 3-amino-N-(4,4-difluorocyclohexyl)-6-methyl-5-(1,3-oxazol-2-yl)pyrazine-2-carboxamide], the Ki is 3.18 nM.

Take `Cc1nc(C(=O)NCc2cccc(C(C)C)n2)c(N)nc1-c1ncco1` [Ex-85, 3-amino-6-methyl-N-{[6-(1-methylethyl)pyridin-2-yl]methyl}-5-(1,3-oxazol-2-yl)pyrazine-2-carboxamide]: the Ki came out at 0.7 nM. Against the preceding compound, the Ki is about 4.5-fold lower.

Take `Cc1nc(C(=O)NCc2nccn2C(C)C)c(N)nc1-c1ncco1` [Ex-87, 3-amino-6-methyl-N-{[1-(1-methylethyl)-1H-imidazol-2-yl]methyl}-5-(1,3-oxazol-2-yl)pyrazine-2-carboxamide]: affinity was put at a Ki of 0.471 nM.

Take `Cc1ccc(CNC(=O)c2nc(C)c(-c3ncco3)nc2N)nc1-c1ccccn1` [Ex-88, 3-amino-6-methyl-N-[(3-methyl-2,2′-bipyridin-6-yl)methyl]-5-(1,3-oxazol-2-yl)pyrazine-2-carboxamide]: the inhibitory constant (Ki) is 6.16 nM. This Ki is about 13-fold higher than that of the compound before.

As to `Cc1ccc(C(C)C)nc1CNC(=O)c1nc(C)c(-c2ncco2)nc1N` [Ex-89, 3-amino-6-methyl-N-{[3-methyl-6-(1-methylethyl)pyridin-2-yl]methyl}-5-(1,3-oxazol-2-yl)pyrazine-2-carboxamide], the inhibitory constant (Ki) is 0.746 nM.

`CCOCCc1ccc(C)c(CNC(=O)c2nc(C)c(-c3ncco3)nc2N)n1` [Ex-90, 3-amino-N-{[6-(2-ethoxyethyl)-3-methylpyridin-2-yl]methyl}-6-methyl-5-(1,3-oxazol-2-yl)pyrazine-2-carboxamide] came in with a Ki of 4.95 nM. Compared with the last compound, the Ki is about 6.6-fold higher.

The compound `Cc1nc(C(=O)NCc2cccn(CC(F)F)c2=O)c(N)nc1-c1ncco1` [Ex-91, 3-amino-N-{[1-(2,2-difluoroethyl)-2-oxo-1,2-dihydropyridin-3-yl]methyl}-6-methyl-5-(1,3-oxazol-2-yl)pyrazine-2-carboxamide] showed a Ki of 2.93 nM.

Compound `Cc1nc(C(=O)NCc2nc(C(F)(F)F)cn2C)c(N)nc1-c1ncco1` [Ex-92, 3-amino-6-methyl-N-{[1-methyl-4-(trifluoromethyl)-1H-imidazol-2-yl]methyl}-5-(1,3-oxazol-2-yl)pyrazine-2-carboxamide] registered a Ki of 11.4 nM. Against the preceding compound, the Ki is about 3.9-fold higher.

For the compound `Cc1nc(C(=O)NCC2(C#N)CCC2)c(N)nc1-c1ncco1` [Ex-93, 3-amino-N-[(1-cyanocyclobutyl)methyl]-6-methyl-5-(1,3-oxazol-2-yl)pyrazine-2-carboxamide], affinity was put at a Ki of 4 nM.

`Cc1nc(C(=O)NCc2cccc3cc[nH]c23)c(N)nc1-c1ncco1` [Ex-95, 3-amino-N-(1H-indol-7-ylmethyl)-6-methyl-5-(1,3-oxazol-2-yl)pyrazine-2-carboxamide] yielded a Ki of 0.276 nM. This Ki is about 14-fold lower than that of the compound before.

Turning to `Cc1nc(C(=O)NCc2cnc3ccccn23)c(N)nc1-c1ncco1` [Ex-96, 3-amino-N-(imidazo-[1,2-a]pyridin-3-yl-methyl)-6-methyl-5-(1,3-oxazol-2-yl)-pyrazine-2-carboxamide], affinity was put at a Ki of 12.8 nM.

`Cc1nc(C(=O)NCc2c(C)nc3ccccn23)c(N)nc1-c1ncco1` [Ex-97, 3-amino-6-methyl-N-[(2-methylimidazo[1,2-a]pyridin-3-yl)methyl]-5-(1,3-oxazol-2-yl)pyrazine-2-carboxamide]: the Ki turned out to be 35.2 nM.
